# Laboratory results as given in PMC1084349 (BMC Neuroscience, 2005).
# Where a SMILES comes first, the peptide text is derived from it.
# Target: T1, rTas1r2-rTas1r3 (Rattus norvegicus, UniProt Q923K1+Q9Z0R7)
# T1 sequence (Q9Z0R7 20-843): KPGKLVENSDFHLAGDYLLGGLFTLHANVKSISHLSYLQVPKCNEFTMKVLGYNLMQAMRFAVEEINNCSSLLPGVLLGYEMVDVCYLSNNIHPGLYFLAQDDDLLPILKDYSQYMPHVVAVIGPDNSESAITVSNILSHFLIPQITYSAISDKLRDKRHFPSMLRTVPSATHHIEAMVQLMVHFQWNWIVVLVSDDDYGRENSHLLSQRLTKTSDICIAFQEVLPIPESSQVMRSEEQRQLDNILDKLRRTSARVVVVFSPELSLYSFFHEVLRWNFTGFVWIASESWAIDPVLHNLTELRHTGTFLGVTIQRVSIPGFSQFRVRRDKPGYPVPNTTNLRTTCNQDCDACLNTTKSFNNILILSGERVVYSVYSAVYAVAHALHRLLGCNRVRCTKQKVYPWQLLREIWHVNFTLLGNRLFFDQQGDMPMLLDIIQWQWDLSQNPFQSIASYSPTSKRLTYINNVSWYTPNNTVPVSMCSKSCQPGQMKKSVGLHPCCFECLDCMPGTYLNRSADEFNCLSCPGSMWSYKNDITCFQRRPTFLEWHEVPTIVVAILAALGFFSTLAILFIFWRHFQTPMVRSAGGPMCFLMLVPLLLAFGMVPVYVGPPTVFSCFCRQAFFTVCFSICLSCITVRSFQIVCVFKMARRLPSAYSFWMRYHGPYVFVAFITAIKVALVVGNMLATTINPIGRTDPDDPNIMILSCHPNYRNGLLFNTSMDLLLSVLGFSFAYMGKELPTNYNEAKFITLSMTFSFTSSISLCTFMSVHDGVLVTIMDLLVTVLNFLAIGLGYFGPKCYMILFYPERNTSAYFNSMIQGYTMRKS
# T1 sequence (Q923K1 21-858): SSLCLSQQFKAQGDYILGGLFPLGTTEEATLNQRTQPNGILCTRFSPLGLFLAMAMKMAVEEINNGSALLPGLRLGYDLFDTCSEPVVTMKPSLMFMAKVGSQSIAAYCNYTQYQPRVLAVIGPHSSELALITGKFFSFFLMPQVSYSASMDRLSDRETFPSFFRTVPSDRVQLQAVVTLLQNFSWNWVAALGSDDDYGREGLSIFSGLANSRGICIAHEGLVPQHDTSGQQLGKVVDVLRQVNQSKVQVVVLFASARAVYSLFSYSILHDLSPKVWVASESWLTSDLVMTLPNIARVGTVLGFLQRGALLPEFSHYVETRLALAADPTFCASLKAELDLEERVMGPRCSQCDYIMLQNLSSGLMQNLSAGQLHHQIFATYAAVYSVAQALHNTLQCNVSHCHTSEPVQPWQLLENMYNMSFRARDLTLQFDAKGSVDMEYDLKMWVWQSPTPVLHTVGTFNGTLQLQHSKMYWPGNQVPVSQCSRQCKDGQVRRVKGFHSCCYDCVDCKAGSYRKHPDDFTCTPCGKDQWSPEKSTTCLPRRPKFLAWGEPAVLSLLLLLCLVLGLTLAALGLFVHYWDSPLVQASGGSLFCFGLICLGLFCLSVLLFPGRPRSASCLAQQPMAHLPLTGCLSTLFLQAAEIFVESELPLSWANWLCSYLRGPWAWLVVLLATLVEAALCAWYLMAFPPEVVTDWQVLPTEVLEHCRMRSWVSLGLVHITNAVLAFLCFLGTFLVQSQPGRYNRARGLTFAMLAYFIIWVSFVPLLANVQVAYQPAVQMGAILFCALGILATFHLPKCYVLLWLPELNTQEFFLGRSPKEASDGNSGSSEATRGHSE
# Experiment: Calcium mobilization (FLIPR) in transfected HEK293T-Gα16gust44 cells, rat sweet receptor
# Settings: asp 15 mM; cyc 30 mM; neo 0.1 mM; sac 10 mM; suc 100 mM; stev 1 mM
row,activation of receptor (calcium response),Compound
1,did not activate,COc1ccc(CCC(=O)c2c(O)cc(O[C@@H]3O[C@H](CO)[C@@H](O)[C@H](O)[C@H]3O[C@@H]3O[C@@H](C)[C@H](O)[C@@H](O)[C@H]3O)cc2O)cc1O [neohesperidine dihydrochalcone]
2,robustly activated,OC[C@H]1O[C@@](CO)(O[C@H]2O[C@H](CO)[C@@H](O)[C@H](O)[C@H]2O)[C@@H](O)[C@@H]1O [sucrose]
3,did not activate,O=S(=O)(O)NC1CCCCC1 [cyclamate]
4,robustly activated,C=C1C[C@@]23CC[C@H]4[C@@](C)(CCC[C@@]4(C)C(=O)O[C@@H]4O[C@H](CO)[C@@H](O)[C@H](O)[C@H]4O)[C@@H]2CC[C@]1(O[C@@H]1O[C@H](CO)[C@@H](O)[C@H](O)[C@H]1O[C@@H]1O[C@H](CO)[C@@H](O)[C@H](O)[C@H]1O)C3 [stevioside]
5,did not activate,COC(=O)[C@H](Cc1ccccc1)NC(=O)[C@@H](N)CC(=O)O [aspartame] (HELM PEPTIDE1{D.F.[CO[*:1]]}$$$$V2.0)
